Results published in patent US20040009905A1 (B.M.R.A. Corporation B.V., priority 1998, published 2004).
“Also recorded” adds a separate entry of the source. Read-outs that look alike come from different tables or passages of the source. The star is where a group is joined. aminooxyacetyl = NOCC(=O)*

Legend:
domestic pigs [1] = settings: pig, in vivo
Method: Experiments were performed on 16 domestic pigs of both sexes (body weight 20-30 kg). The animals were premedicated with atropine (0.05 mg/kg) and ketamine (Ketalar, ParkeDavis, USA, 20 mg/kg i.m.) and anaesthetized with thiopentone (5 mg/kg i.v.). A tracheostomy was performed and artificial ventilation was started using a volume regulated ventilator (type Siemens 900). During surgery, continuous i.v. infusion of Ringer's solution, thiopentone (15 mg/kg/h) and pancuronium bromide (0.25 mg/kg/h) was performed.
Catheters were placed in the femoral artery for systemic blood pressure and heart rate monitoring and in the femoral vein for thiopentone and fluid administration (300 ml/h). […] Nasal arterial blood flow was monitored with a Transonic flow probe (RB 143) placed around the sphenopalatine artery and connected to a T 202 ultrasonic blood flowmeter (Transonic System Inc., Ithaca, N.Y., USA).
Heart rate and systemic arterial blood pressure using the femoral artery catheter connected to a pressure transducer.
Sphenopalatine arterial blood flow using an Ultrasonic flow meter probe (see above).

domestic pigs [2] = settings: pig, in vivo; remark: listed apart in the source
Method: Experiments were performed on 16 domestic pigs of both sexes (body weight 20-30 kg). The animals were premedicated with atropine (0.05 mg/kg) and ketamine (Ketalar, ParkeDavis, USA, 20 mg/kg i.m.) and anaesthetized with thiopentone (5 mg/kg i.v.). A tracheostomy was performed and artificial ventilation was started using a volume regulated ventilator (type Siemens 900). During surgery, continuous i.v. infusion of Ringer's solution, thiopentone (15 mg/kg/h) and pancuronium bromide (0.25 mg/kg/h) was performed. […]
2. […] Airway pressure was measured from a catheter positioned at the tip of the endotracheal tube. Transpulmonary pressure was determined by a differential pressure transducer (Hewlett-Packard 267B) taking the difference between tracheal and oesophagus pressure. Tidal volume was determined by integration of the respiratory flow signal measured with a pneumotachograph (Gould Godard, model 17212) by means of a heated Fleisch flow transducer #2 connected to the endotracheal tube. Transpulmonary pressure, tidal volume and flow were continuously recorded on a 4-channel recorder (Hewlett-Packard, 7754 GB). Total airflow resistance across the lungs (raw) was determined by dividing the difference in transpulmonary pressure by inspiratory plus expiratory flow at mid-tidal volume. […]

[3] = Circular dichroism spectroscopy of conformational properties; format: physicochemical; settings: in TFE, 295K
Method: The conformational properties of TASP-V were studied in solution mainly by circular dichroism (CD) spectroscopy under various experimental conditions. In order to detect effects of template attachment on secondary and tertiary structure formation, the corresponding single (not template attached) peptide IV was also studied.
CD spectra were recorded on a Jobin Yvon Dichrograph Mark VI calibrated with D(+)-10-camphorsulfonic acid. All measurements were performed at 295K using quartz cells with a path length of 0.1 cm and each spectrum was the average of three repeated scans between 185 nm to 250 nm, with an integration time of Is for 0.8 nm steps. The spectra were corrected by substraction of the background solvent spectrum obtained under identical experimental conditions and smoothed for clarity of display. CD intensities are expressed as mean residue ellipticities (deg cm2 dmol-1), calculated by dividing the total molar ellipticities by the number of amino acids in the peptide.

NPY Y2 receptor = molecular target: T1, NPY Y2 receptor (Homo sapiens, UniProt P49146); test: Y2 radioreceptor binding assay (125I-NPY displacement, LN319 cells); settings: FIG. 7
T1 construct: endogenous in cells; host or cells: LN319 (human glioblastoma)
T1 sequence (P49146 1-381): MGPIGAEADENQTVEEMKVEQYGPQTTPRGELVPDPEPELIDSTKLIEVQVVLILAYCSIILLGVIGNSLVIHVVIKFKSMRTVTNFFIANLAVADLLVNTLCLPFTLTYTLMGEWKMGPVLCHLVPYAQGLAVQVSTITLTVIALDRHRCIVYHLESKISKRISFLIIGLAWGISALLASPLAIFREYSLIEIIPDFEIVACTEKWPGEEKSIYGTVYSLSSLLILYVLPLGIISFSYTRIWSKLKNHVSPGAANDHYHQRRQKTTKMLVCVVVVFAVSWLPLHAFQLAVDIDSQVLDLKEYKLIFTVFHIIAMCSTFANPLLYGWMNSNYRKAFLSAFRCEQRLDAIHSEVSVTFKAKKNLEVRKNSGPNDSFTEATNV
Method: Tissue culture media were purchased from Life Technologies (Basel, Switzerland) and fetal calf serum was obtained from Seromed (Berlin, Germany). 70% confluent cells were washed with PBS and harvested using 0.15% Trypsin containing 0.4 mM EDTA. Cells were further diluted 1/3 and plated onto either 60 mm cell culture dishes (Nunc, Denmark) or 12-mm glass coverslips (Huber and Co, AG, Reinach, Switzerland). Media were changed every 3 days. A human glioblastoma cell line, LN319, was used for Y2 binding studies (Greber, et al., Br. J. Pharmacol. 113:737-740 (1994)). Prior to performing binding assays, adhered LN319 cells were washed extensively with phosphate buffered saline. […] After centrifugation at 600 g for 15 minutes at a temperature of 4° C., the pellet was resuspended in the harvesting buffer. […] Incubation proceeded at room temperature for 45 minutes. Bound radioactivity was determined after separating the unbound fraction by centrifugation.

CC[C@H](C)[C@H](NC(=O)[C@H](Cc1ccc(O)cc1)NC(=O)[C@H](Cc1c[nH]cn1)NC(=O)[C@H](CCCNC(=N)N)NC(=O)[C@H](CC(C)C)NC(=O)[C@H](C)NC(=O)[C@H](CO)NC(=O)[C@H](Cc1ccc(O)cc1)NC(=O)CNC(=O)CON=CC(=O)NCCCC[C@@H]1NC(=O)CNC(=O)[C@H](CCCCNC(=O)C=NOCC(=O)NCC(=O)N[C@@H](Cc2ccc(O)cc2)C(=O)N[C@@H](CO)C(=O)N[C@@H](C)C(=O)N[C@@H](CC(C)C)C(=O)N[C@@H](CCCNC(=N)N)C(=O)N[C@@H](Cc2c[nH]cn2)C(=O)N[C@@H](Cc2ccc(O)cc2)C(=O)N[C@H](C(=O)N[C@@H](CC(N)=O)C(=O)N[C@@H](CC(C)C)C(=O)N[C@H](C(=O)N[C@H](C(=O)N[C@@H](CCCNC(=N)N)C(=O)N[C@@H](CCC(N)=O)C(=O)N[C@@H](CCCNC(=N)N)C(=O)N[C@@H](Cc2ccc(O)cc2)C(N)=O)[C@@H](C)O)[C@@H](C)CC)[C@@H](C)CC)NC(=O)c2ccc3cccc(c3c2)CNC1=O)C(=O)N[C@@H](CC(N)=O)C(=O)N[C@@H](CC(C)C)C(=O)N[C@H](C(=O)N[C@H](C(=O)N[C@@H](CCCNC(=N)N)C(=O)N[C@@H](CCC(N)=O)C(=O)N[C@@H](CCCNC(=N)N)C(=O)N[C@@H](Cc1ccc(O)cc1)C(N)=O)[C@@H](C)O)[C@@H](C)CC [TASP-V]
Change in heart rate or mean arterial blood pressure (domestic pigs [1]): did not induce any change | Change in heart rate or mean arterial blood pressure (domestic pigs [2]): did not induce any change

IV: single, not template attached aminooxyacetyl NPY21-36 amide peptide (IV in FIG. 5) (aminooxyacetyl-YSALRHYINLITRQRY-NH2; SMILES CC[C@H](C)[C@H](NC(=O)[C@H](Cc1ccc(O)cc1)NC(=O)[C@H](Cc1c[nH]cn1)NC(=O)[C@H](CCCNC(=N)N)NC(=O)[C@H](CC(C)C)NC(=O)[C@H](C)NC(=O)[C@H](CO)NC(=O)[C@H](Cc1ccc(O)cc1)NC(=O)CON)C(=O)N[C@@H](CC(N)=O)C(=O)N[C@@H](CC(C)C)C(=O)N[C@H](C(=O)N[C@H](C(=O)N[C@@H](CCCNC(=N)N)C(=O)N[C@@H](CCC(N)=O)C(=O)N[C@@H](CCCNC(=N)N)C(=O)N[C@@H](Cc1ccc(O)cc1)C(N)=O)[C@@H](C)O)[C@@H](C)CC; UniProt P01303 49-64, looked up, fragment)
Helicity / secondary structure content by CD [3]: < 30%

Leu31, Pro34 NPY: Leu31- and Pro34-substituted NPY, shown to be a Y1 agonist
Affinity / binding to the Y2 receptor (in words) (NPY Y2 receptor): poor affinity binding; also recorded: bound poorly
